Common to all, as to format: cell-based, human
Test [1] has as its system AAVS1. In words: Percent editing at AAVS1 by NGS in NK cells with DNAPK inhibitors, Example 29. The settings on record: LNP 10 ug/ml total RNA cargo, seven days post LNP treatment.
Experimental: (§1) Human primary NK cells were activated and expanded using K562-41BBL cells as feeder cells in OpTmizer media with 5% human AB serum, 500 U/mL IL-2, and 5 ng/ml IL-15 for 3 days. NK cells were plated at 50,000 cells per well in triplicate in OpTmizer media supplemented as described above with DNAPKi at concentrations indicated in Tables 78 and 79. […] The pre-incubated LNPs were added to NK cells suspended in the same media at a final concentration of 10 ug/ml of total RNA cargo in triplicate. For a subset of samples, AAV encoding GFP flanked by regions homologous to the AAVS1 edit site were added at a multiplicity of infection (MOI) of 600,000 genome copies following editing.
The test system of test [2] is AAVS1. In words: GFP insertion (GFP++) in NK cells with LNP, AAV and DNAPK inhibitors, Example 29. The following applies: LNP 10 ug/ml, seven days following editing.
Experimental: as §1
Test [3] has as its system B2M. In words: B2M editing by NGS in T cells with different ionizable lipid formulations (Lipid A, Lipid B), Example 7. The following applies: LNPs formulated with the named ionizable lipid. As to the method: LNPs formulated with different ionizable lipids were tested for T cell delivery efficacy. T cells were prepared, thawed and activated as in Example 5. Forty-eight hours post activation, T cells were treated with LNPs delivering Cas9 mRNA and gRNA G000529 (SEQ ID NO: 701) targeting B2M. LNPs were generally prepared as Example 1. Lipid A formulations were prepared at a ratio of 50/9/38/3 ionizable Lipid A, cholesterol, DSPC, and PEG2k-DMG. Lipid B compositions were formulated at a ratio of 50/10/38.5/1.5 ionizable lipid nonyl 8-((8,8-bis(octyloxy)octyl)(2-hydroxyethyl)amino)octanoate, cholesterol, DSPC, and PEG2k-DMG.

Test [4] deals with TRAC. In words: Lipid screen in activated B cells: percent editing by NGS, Example 23.3. The settings on record: LNPs formulated with the named ionizable lipid, 5 μg/ml. As for the experimental part:
A leukopak from a healthy human donor was obtained commercially (Hemacare) and B cells were isolated by CD19 positive selection using the StraightFrom Leukopak CD19 MicroBead kit (Miltenyi, 130-117-021) on a MultiMACS Cell24 Separator Plus instrument. Following MACS isolation, CD19+ B cells were activated in B Cell Media 3 or B Cell Media 7, each supplemented with 100 ng/ml MEGACD40L. […] LNPs were generally prepared as Example 1 using the ionizable and PEG lipids described in Table 68 with the lipid composition expressed as the molar ratio of ionizable lipid/cholesterol/DSPC/PEG, respectively.
Editing was more efficient in B cells cultured in StemSpan compared to IMDM.

The subject of test [5] is B2M. In words: B2M negative B cells after LNPs preincubated with ApoE3 or ApoE4, Example 23.4. The settings on record: LNPs formulated with the named ionizable lipid. As for the experimental part:
B cells (Hemacare) were thawed and activated in Stemspan SFEM media with 1 ug/ml CpG ODN 2006 (Invivogen, cat. tlrl-2006-1), 50 ng/ml IL-2 (Peprotech, cat. 200-02), 50 ng/ml IL-10 (Peprotech, cat. 200-10), 10 ng/ml IL-15 (Peprotech, cat. 200-15), 1 ng/ml MegaCD40L (Enzo Life Sciences, cat. ALX-522-110-0000), 1% penicillin-streptomycin and 5% human AB serum. B cells were considered activated in the presence of 1 ng/mL MegaCD40L (Enzo Life Sciences, cat. ALX-522-110-0000) and 1 ug/mL CpG ODN 2006 (Invivogen, cat. tlrl-2006-1). Two days following activation, B cells were treated with LNPs delivering Cas9 mRNA and gRNA G000529 (SEQ ID NO: 701) targeting B2M. LNPs were generally prepared as Example 1 using the ionizable lipids described in Table 69 with the lipid composition of 50/10/38.5/1.5, expressed as the molar ratio of ionizable lipid/cholesterol/DSPC/PEG, respectively. […] Five days post LNP treatment, cells were phenotyped by flow cytometry. Briefly, B cells were incubated with antibodies targeting B2M (Biolegend, cat. 395806), CD19 (Biolegend, cat. 302205), CD20 (Biolegend, cat. 302322), CD86 (Biolegend cat. 305420). Cells were subsequently washed in DAPI (Thermo Fisher, cat. D1306) diluted 1:3703 in PBS, processed on a Cytoflex instrument (Beckman Coulter) and analyzed using the FlowJo software package. B cells were gated on size, singlets, and live cells.

For test [6], the system named is B2M locus. In words: Insertion into B cells with LNP and AAV6: GFP positive and B2M negative cells, Example 26. The following applies: Day 7 post-treatment; LNP with the named ionizable lipid 5 μg/ml plus AAV6. As to the method: B cells were isolated as Example 23.3. and were activated in B cell media 9 as described in Table 64, supplemented with 1 ng/ml MEGACD40L. Two days following activation, B cells were treated with LNPs delivering mRNA encoding Cas9 (SEQ ID NO. 6) and gRNA G000529 (SEQ ID NO: 701) targeting the B2M locus as well as with AAV6 for GFP template insertion into the B2M locus (SEQ ID NO. 722) driven by the EF1α promoter. LNPs were generally prepared as described in Example 1 using Lipid A and Lipid D as the ionizable lipids with the lipid composition of 50/10/38.5/1.5, expressed as the molar ratio of ionizable lipid/cholesterol/DSPC/PEG, respectively.
B cells were phenotyped for GFP expression on Day 7. For B cell phenotyping by flow cytometry, B cells were stained with antibodies targeting CD19 (Biolegend, 302218), CD20 (Biolegend, 302322), CD86 (Biolegend, 374216) and B2M (Biolegend, 316312). Cells were subsequently stained with a viability dye (Biolegend, 422801), washed, and processed on a Cytoflex instrument (Beckman Coulter). Results were analyzed using the FlowJo software package. B cells were gated based on size and viability, followed by GFP expression on the total live population.

Test [7] concerns B2M. In words: Percent editing by NGS in monocytes and macrophages with Lipid A or Lipid D LNPs, Example 34. The following applies: LNP formulations with the named lipid; Day 0 and Day 5 post thaw. As for the experimental part: CD14+ cells were isolated as in Example 31 and frozen for future use. CD14+ cells were thawed and cultured in triplicate at 100,000 cells/well in OpTmizer base media as described in Table 2 with 10 ng/mL GM-CSF (Stemcell, 78140.1) on non-tissue culture plates (Falcon, 351172) for ease of detachment. Cells were treated with LNPs delivering mRNA encoding Cas9 (SEQ ID NO. 6) and gRNA G000529 (SEQ ID NO. 701) targeting B2M. For monocytes, LNP addition occurred on the same day as plating on tissue culture plates. […] LNPs were generally prepared as Example 1 using the ionizable lipids indicated in Tables 84 and 85 with the lipid composition of 50/10/38.5/1.5, expressed as the molar ratio of ionizable lipid/cholesterol/DSPC/PEG, respectively. […] The pre-incubated LNPs were added to cells in 1:1 v/v ratio, yielding a final total RNA cargo dose of 2.5 ug/mL or 5 ug/mL.
Briefly, cells were incubated with antibodies targeting CD68, CD11b and HLA-ABC (Biolegend, 311432) as generally as described in Example 31. HLA-ABC targeting antibody was used in place of B2M. Cells were subsequently washed, processed on a Cytoflex instrument (Beckman Coulter) and analyzed using the FlowJo software package. Cells were gated on size, CD68+, CD11b+ followed by HLA-ABC− population. NGS editing data is shown is Table 85. […] Editing was also observed when cells were cultured in RPMI or XVIVO-15 media.

For test [8], the system named is TRBC. In words: CD3 negative cells after treating activated T cells with LNPs preincubated with ApoE3, ApoE4 or ApoA1, Example 19.
Experimental: All cells were cultured at 37 C for 48 hours. 100,000 T cells were resuspended in complete T cell media without human serum for 15-30 min prior to LNP transfection.
Cells were washed 48 hr post LNP treatment with T cell media to wash and replaced with fresh complete T cell media.
Five days post LNP treatment, T cells were phenotyped by flow cytometry to determine CD3 protein surface expression. […] Cells were subsequently washed, analyzed on a CytoFLEX S instrument (Beckman Coulter) using the FlowJo software package. T cells were gated on size and CD3 expression.
Test [9] deals with TRBC. In words: CD3 negative cells after treating non-activated T cells with LNPs preincubated with ApoE3, ApoE4 or ApoA1, Example 19. As for the experimental part: Healthy human donor leukopak was obtained commercially (Hemacare) and T cells were isolated by CD4/CD8 positive selection using the StraightFrom® Leukopak® CD4/CD8 MicroBeads (Miltenyi, Catalog, 130-122-352) following the manufacturer's protocol on MultiMACS Cell24 Separator Plus instrument.
Upon thaw, T cells were cultured in complete T cell media: T cell base media composed of XVIVO-15 media (Fisher, BE02-060Q), 1% Pen-Strep (Corning, 30-002-CI), 50 uM beta-mercaptoethanol, and N-Acetyl L-Cysteine (Fisher, ICN19460325), which was further supplemented with 5% human AB serum (Gemini Bio Products, 100-512), 200 U/mL IL-2 (Peprotech, 200-02), 5 ng/mL IL7 (Peprotech, 200-07), 5 ng/mL IL-15 (Peprotech, 200-15)). At this stage, a portion of cells were activated by addition of 1:100 dilution of TransAct (Miltenyi Biotech, Catalog #130-111-160). All cells were cultured at 37 C for 48 hours.
LNPs were generally prepared as Example 1 with the lipid composition of 50/9/39.5/1.5, expressed as the molar ratio of ionizable lipid A/cholesterol/DSPC/PEG, respectively.
Briefly, T cells were incubated in antibody targeting CD3 (Biolegend, 300441). Cells were subsequently washed, analyzed on a CytoFLEX S instrument (Beckman Coulter) using the FlowJo software package. T cells were gated on size and CD3 expression.

The mark [10] stands for this setting: Apo protein 0.08 ug/mL, Biological Replicate1, LNP 4 ug/mL.
Where [11] appears, read: Apo protein 0.08 ug/mL, Biological Replicate2, LNP 4 ug/mL.
Setting [12] is: Apo protein 1.25 ug/mL, Biological Replicate1, LNP 4 ug/mL.
Setting [13] is: Apo protein 1.25 ug/mL, Biological Replicate2, LNP 4 ug/mL.
[14] abbreviates: Apo protein 5.00 ug/mL, Biological Replicate1, LNP 4 ug/mL.
The mark [15] stands for this setting: Apo protein 5.00 ug/mL, Biological Replicate2, LNP 4 ug/mL.
Setting [16] is: Apo protein 10.00 ug/mL, Biological Replicate1, LNP 4 ug/mL.
[17] abbreviates: Apo protein 10.00 ug/mL, Biological Replicate2, LNP 4 ug/mL.

These results are taken from patent US20230183753A1, “Methods of in Vitro Cell Delivery” (Intellia Therapeutics, Inc., priority 2020, published 2023).

For `Cc1cc2ncnn2cc1Nc1ncc2c(n1)n(C1CCC3(CC1)CC3)c(=O)n2C` [Compound 4, 7-methyl-2-((7-methyl-[1,2,4]triazolo[1,5-a]pyridin-6-yl)amino)-9-(spiro[2.5]octan-6-yl)-7,9-dihydro-8H-purin-8-one], the “Mean percent editing at AAVS1” value in test [1] (DNAPKi 0.125 uM) is 96.77%; in [1] (DNAPKi 0.5 uM), 97.67%; in test [1] (DNAPKi […]), 97.37%. For the same compound, the “Percent of NK cells with high GFP expression, Mean” value in [2] (AAV MOI 600,000, DNAPKi 0.125 uM) is listed as 88.10%; in test [2] (AAV MOI 600,000, DNAPKi 0.5 uM), 90.27%; in test [2] (AAV MOI 600,000, DNAPKi […]), 90.63%.

Turning to `CCCCC/C=C\C/C=C\CCCCCCCC(=O)OCC(COC(=O)CCC(OCCCCCCCC)OCCCCCCCC)COC(=O)OCCCN(CC)CC` (stereo not shown) [Lipid A, (9Z,12Z)-3-((4,4-bis(octyloxy)butanoyl)oxy)-2-((((3-(diethylamino)propoxy)carbonyl)oxy)methyl)propyl octadeca-9,12-dienoate], the “B2M editing in T cells by NGS, in words” value in [3] was “Efficient editing was evident”. For the same compound, in test [4], the “editing in activated B cells by NGS, in words” value is given as “Efficient editing was evident”. Besides, in test [5], the “B2M negative B cells, in words” value was “increased percentage of B2M negative cells”. For the same compound, in [6], the “percentage of B cells expressing GFP” value came out at 29.5%. Also, the “editing in monocytes and macrophages, in words” value in test [7] is recorded as “showed effective editing”.

For the compound `CCCCCCCCCOC(=O)CCCCCCCN(CCO)CCCCCCCC(OCCCCCCCC)OCCCCCCCC` [Lipid B, nonyl 8-((8,8-bis(octyloxy)octyl)(2-hydroxyethyl)amino)octanoate], the “B2M editing in T cells by NGS, in words” value in test [3] is recorded as “Efficient editing was evident”.

Take `CCCCCCCCCOC(=O)CCCCCCCN(CCO)CCCCCCC(OCCCCCCCC)OCCCCCCCC` [Lipid C]: the “editing in activated B cells by NGS, in words” value in test [4] is “Efficient editing was evident”.

On to `CCCCCCCCCOC(=O)CCCCCCCN(CCO)CCCCCCC(OCCCCCCCC)OCCCCCCCC` [Lipid D], for which, in test [5], the “B2M negative B cells, in words” value is on record as “increased percentage of B2M negative cells”. In test [6], the “percentage of B cells expressing GFP” value is recorded as 14.5%. In addition, in test [7], the “editing in monocytes and macrophages, in words” value is “showed effective editing”.

With “ApoA1: Recombinant Human ApoA1 used to preincubate LNPs”, the “Percent CD3 negative cells” value is on record as 2.9% in [8] (setting [10]); 2.5% in [8] (setting [11]); 2.8% in test [8] (setting [12]); 3.0% in test [8] (setting [13]); 2.5% in test [8] (setting [14]); 3.2% in test [8] (setting [15]). The “Percent CD3 negative cells” value in test [8] (setting [16]) is on record as 3.6%; in [8] (setting [17]), 3.6%; in [9] (setting [10]) it was 4.2%; in [9] (setting [11]), 6.2%; in test [9] (setting [12]) it was 4.7%; in [9] (setting [13]), 4.2%. In addition, the “Percent CD3 negative cells” value in [9] (setting [14]) turned out to be 6.1%; in test [9] (setting [15]), 4.8%; in test [9] (setting [16]), 5.4%; in [9] (setting [17]) it was 3.8%. For the same compound, the “editing (CD3 negative cells) with LNPs preincubated with Apo protein, in words” value in test [8] (Apo protein 0.08-10 ug/mL) and in test [9] (Apo protein 0.08-10 ug/mL) was “none of the tested concentrations of ApoA1 protein led to efficient editing” each time.
